Test results: PubChem BioAssay AID248 (DTP/NCI, 2004)
Values joined by “and” are separate entries in the source; they are usually repeats but may differ in a detail not shown here. Equal values may be shown once. Inconclusive results and toxic doses are left out. No stated cut-off is given here; in the data, active means T/C of 150% or more; inactive means T/C below 125%.

System: L1210 leukemia ip in BDF1 mice, survival T/C
Test: NCI In Vivo Anticancer Drug Screen. Data for tumor model L1210 Leukemia (intraperitoneal) in B6D2F1 (BDF1) mice
Settings: endpoint: mean survival time, higher = longer survival
Method in brief: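 Antitumor effect is assessed in tumor-bearing animals. Survival in the compound arm is compared with a vehicle-dosed control arm and expressed as their quotient.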

[1] = dose: 100.0 mg/kg/injection, schedule: Q01DX009 (ip), vehicle: saline with Tween-80
[2] = dose: 100.0 mg/kg/injection, schedule: Q04DX002 (ip), vehicle: saline with Tween-80
[3] = dose: 200.0 mg/kg/injection, schedule: Q01DX009 (ip), vehicle: saline with Tween-80
[4] = dose: 200.0 mg/kg/injection, schedule: Q04DX002 (ip), vehicle: saline with Tween-80
[5] = dose: 400.0 mg/kg/injection, schedule: Q01DX009 (ip), vehicle: saline with Tween-80
[6] = dose: 400.0 mg/kg/injection, schedule: Q04DX002 (ip), vehicle: saline with Tween-80
[7] = dose: 100.0 mg/kg/injection, schedule: Q01DX009 (ip), vehicle: saline
[8] = dose: 100.0 mg/kg/injection, schedule: Q04DX003 (ip), vehicle: saline
[9] = dose: 200.0 mg/kg/injection, schedule: Q01DX009 (ip), vehicle: saline
[10] = dose: 200.0 mg/kg/injection, schedule: Q04DX003 (ip), vehicle: saline
[11] = dose: 400.0 mg/kg/injection, schedule: Q04DX003 (ip), vehicle: saline
[12] = dose: 50.0 mg/kg/injection, schedule: Q01DX009 (ip), vehicle: saline with Tween-80
[13] = dose: 100.0 mg/kg/injection, schedule: Q04DX002 (ip), vehicle: Klucel (hydroxypropylcellulose) (HPC)
[14] = dose: 400.0 mg/kg/injection, schedule: Q04DX002 (ip), vehicle: Klucel (hydroxypropylcellulose) (HPC)
[15] = dose: 100.0 mg/kg/injection, schedule: Q01DX001 (ip), vehicle: saline
[16] = dose: 200.0 mg/kg/injection, schedule: Q01DX001 (ip), vehicle: saline
[17] = dose: 400.0 mg/kg/injection, schedule: Q01DX001 (ip), vehicle: saline
[18] = dose: 100.0 mg/kg/injection, schedule: Q04DX003 (ip), vehicle: saline with Tween-80
[19] = dose: 200.0 mg/kg/injection, schedule: Q04DX003 (ip), vehicle: saline with Tween-80
[20] = dose: 400.0 mg/kg/injection, schedule: Q04DX003 (ip), vehicle: saline with Tween-80
[21] = dose: 100.0 mg/kg/injection, schedule: Q04DX003 (ip), vehicle: Klucel (hydroxypropylcellulose) (HPC)
[22] = dose: 200.0 mg/kg/injection, schedule: Q04DX003 (ip), vehicle: Klucel (hydroxypropylcellulose) (HPC)
[23] = dose: 400.0 mg/kg/injection, schedule: Q04DX003 (ip), vehicle: Klucel (hydroxypropylcellulose) (HPC)
[24] = dose: 200.0 mg/kg/injection, schedule: Q04DX002 (ip), vehicle: Klucel (hydroxypropylcellulose) (HPC)
[25] = dose: 6.25 mg/kg/injection, schedule: Q04DX003 (ip), vehicle: saline

Measured: T/C

COc1cc(C(=O)NNC(=O)c2ccc(Cl)c(Cl)c2)cc(OC)c1OC
inactive: dose: 100.0 mg/kg/injection, schedule: Q01DX001 (ip), vehicle: saline with Tween-80 93 % of control | [1] 100 % of control and 89 % of control | [2] 93 % of control and 104 % of control | dose: 200.0 mg/kg/injection, schedule: Q01DX001 (ip), vehicle: saline with Tween-80 97 % of control | [3] 101 % of control and 86 % of control | [4] 101 % of control and 110 % of control | dose: 400.0 mg/kg/injection, schedule: Q01DX001 (ip), vehicle: saline with Tween-80 90 % of control | [5] 92 % of control and 97 % of control | [6] 102 % of control and 87 % of control

C=C(NC(=O)COc1ccccc1)C(=O)O
inactive: [7] 103 % of control | [8] 116 % of control | [9] 90 % of control | [10] 97 % of control | [11] 100 % of control

CCC/C(=N\NC(=O)c1ccc(OC)cc1)c1ccccc1
inactive: [12] 94 % of control | [1] 102 % of control | [3] 94 % of control

O=C(Nc1ccc(Cl)c(Cl)c1)C(Cl)Cl
inactive: [13] 109 % of control | [14] 103 % of control

CC(=O)NCC1CCCO1 (stereo unspecified)
inactive: dose: 75.0 mg/kg/injection, schedule: Q01DX009 (ip), vehicle: saline 112 % of control | [8] 105 % of control | dose: 150.0 mg/kg/injection, schedule: Q01DX009 (ip), vehicle: saline 103 % of control | [10] 108 % of control | dose: 300.0 mg/kg/injection, schedule: Q01DX009 (ip), vehicle: saline 103 % of control | [11] 106 % of control

COC1OC(COC(=O)c2ccc([N+](=O)[O-])cc2)C(N(C)C(C)=O)C1OC(=O)c1ccc([N+](=O)[O-])cc1 (stereo unspecified)
inactive: dose: 100.0 mg/kg/injection, schedule: Q01DX001 (ip), vehicle: carboxymethylcellulose (CMC) 93 % of control | dose: 200.0 mg/kg/injection, schedule: Q01DX001 (ip), vehicle: carboxymethylcellulose (CMC) 93 % of control | dose: 400.0 mg/kg/injection, schedule: Q01DX001 (ip), vehicle: carboxymethylcellulose (CMC) 93 % of control

C=C1CC(CC)C(C)OC1=O (stereo unspecified)
inactive: [15] 102 % of control | [16] 102 % of control | [17] 98 % of control

CC(Br)C1(c2cccc([N+](=O)[O-])c2)OCCO1 (stereo unspecified)
inactive: [8] 105 % of control | [10] 100 % of control | [11] 108 % of control

COC1CCC(/C(C#N)=C/C2CCC(N(C)C)CC2)CC1 (stereo unspecified)
inactive: [2] 95 % of control | [4] 91 % of control | [6] 98 % of control

CCN(CC)CCNC(=O)c1ccc(N=Cc2cc(Br)ccc2O)cc1
inactive: dose: 100.0 mg/kg/injection, schedule: Q01DX009 (ip), vehicle: Klucel (hydroxypropylcellulose) (HPC) 98 % of control | dose: 200.0 mg/kg/injection, schedule: Q01DX009 (ip), vehicle: Klucel (hydroxypropylcellulose) (HPC) 96 % of control

O=C1OC(=O)C2C3CC(C4OC34)C12 (stereo unspecified)
inactive: [18] 95 % of control | [19] 100 % of control | [20] 94 % of control

CC1CN=C(c2c(O)ccc3ccccc23)S1 (stereo unspecified)
inactive: dose: 100.0 mg/kg/injection, schedule: Q04DX002 (ip), vehicle: gum acacia 96 % of control | dose: 200.0 mg/kg/injection, schedule: Q04DX002 (ip), vehicle: gum acacia 93 % of control | dose: 400.0 mg/kg/injection, schedule: Q04DX002 (ip), vehicle: gum acacia 90 % of control

CC(=O)NC(COC(C)=O)C1OC(C)(C)OC1C(COC(C)=O)OC(C)=O (stereo unspecified)
inactive: [15] 101 % of control | [16] 104 % of control | [17] 98 % of control

CCOC(=O)C1(C(=O)OCC)CCC(O)N1C(=O)c1cc(OC)c(OC)cc1[N+](=O)[O-] (stereo unspecified)
inactive: [21] 97 % of control | [22] 99 % of control | [23] 97 % of control

Cc1ccc([N+](=O)[O-])cc1NC(=O)Cc1ccccc1
inactive: [13] 101 % of control | [24] 93 % of control | [14] 93 % of control

CCOC(=O)C(OCc1ccccc1)(C(=O)O)C(C)C (stereo unspecified)
inactive: dose: 25.0 mg/kg/injection, schedule: Q04DX003 (ip), vehicle: saline with Tween-80 93 % of control | dose: 50.0 mg/kg/injection, schedule: Q04DX003 (ip), vehicle: saline with Tween-80 97 % of control | [18] 98 % of control | [19] 103 % of control

CC(C)C1CCC(C)C(OB(OC2CC(C(C)C)CCC2C)OC2CC(C(C)C)CCC2C)C1 (stereo unspecified)
inactive: [21] 88 % of control | [22] 99 % of control | [23] 88 % of control

COc1cccc(OC)c1C(=O)O
inactive: [13] 100 % of control | [24] 111 % of control | [14] 100 % of control

CCOC(=S)SC/C=C/CSC(=S)OCC
inactive: [2] 97 % of control | [4] 103 % of control | [6] 107 % of control

CCC(O)C[As](=O)(O)c1ccccc1 (stereo unspecified)
inactive: dose: 1.56 mg/kg/injection, schedule: Q04DX003 (ip), vehicle: saline 94 % of control | dose: 3.13 mg/kg/injection, schedule: Q04DX003 (ip), vehicle: saline 105 % of control | [25] 96 % of control

CN(NC(=O)c1ccccc1)C(=O)c1ccccc1
inactive: dose: 12.5 mg/kg/injection, schedule: Q04DX003 (ip), vehicle: Klucel (hydroxypropylcellulose) (HPC) 106 % of control | dose: 25.0 mg/kg/injection, schedule: Q04DX003 (ip), vehicle: Klucel (hydroxypropylcellulose) (HPC) 104 % of control | dose: 50.0 mg/kg/injection, schedule: Q04DX003 (ip), vehicle: Klucel (hydroxypropylcellulose) (HPC) 103 % of control | [21] 108 % of control | dose: 130.0 mg/kg/injection, schedule: Q04DX003 (ip), vehicle: Klucel (hydroxypropylcellulose) (HPC) 100 % of control | [22] 103 % of control | dose: 300.0 mg/kg/injection, schedule: Q04DX003 (ip), vehicle: Klucel (hydroxypropylcellulose) (HPC) 113 % of control

CCN(CC)CCSC(=O)C(O)(c1ccccc1)c1ccccc1
inactive: dose: 75.0 mg/kg/injection, schedule: Q01DX001 (ip), vehicle: saline 100 % of control

COC(=O)c1ccccc1C(=S)N1CCOCC1
inactive: [21] 97 % of control | [22] 96 % of control | [23] 94 % of control

C=CCNCCN1CCN(CCCN2c3ccccc3Sc3ccc(C(F)(F)F)cc32)CC1
inactive: [25] 106 % of control | dose: 12.5 mg/kg/injection, schedule: Q01DX009 (ip), vehicle: saline 103 % of control | dose: 12.5 mg/kg/injection, schedule: Q04DX003 (ip), vehicle: saline 98 % of control | dose: 25.0 mg/kg/injection, schedule: Q01DX009 (ip), vehicle: saline 102 % of control | dose: 25.0 mg/kg/injection, schedule: Q04DX003 (ip), vehicle: saline 102 % of control | dose: 50.0 mg/kg/injection, schedule: Q04DX003 (ip), vehicle: saline 96 % of control

CCOC(=O)C(=CNc1cc(N)nc(SC)n1)C(=O)OCC
inactive: [13] 114 % of control | [24] 103 % of control | [14] 100 % of control

C1=C2CN3CCC45c6ccccc6N6CCC(OC1)C(C2CC34)C65 (stereo unspecified)
inactive: dose: 1.25 mg/kg/injection, schedule: Q01DX001 (ip), vehicle: other 105 % of control

CC1(C)CC(=O)N/C1=C\C1NC(=O)CC1(C)C (stereo unspecified)
inactive: [1] 96 % of control | [3] 104 % of control | [5] 102 % of control

C1=CC2CCC1CC2c1ccccc1 (stereo unspecified)
inactive: [15] 104 % of control | [16] 105 % of control | [17] 114 % of control

CC(C)C(N)C(=O)NO (stereo unspecified)
inactive: dose: 50.0 mg/kg/injection, schedule: Q01DX009 (ip), vehicle: saline 95 % of control | [7] 100 % of control | [9] 107 % of control | dose: 400.0 mg/kg/injection, schedule: Q01DX009 (ip), vehicle: saline 110 % of control

CN(C)CCCN1CCCCC1
inactive: dose: 50.0 mg/kg/injection, schedule: Q01DX001 (ip), vehicle: saline 106 % of control | [15] 115 % of control | [16] 110 % of control | [17] 104 % of control

Cc1ccc(NC(=O)NCCOc2ccc(Br)cc2)c([N+](=O)[O-])c1
inactive: [12] 98 % of control | [1] 95 % of control | [18] 92 % of control | [3] 95 % of control | [19] 91 % of control | [20] 100 % of control
